Laboratory results: US20100120715A1, “BETA-LACTAMASE INHIBITORS” (priority 2007, published 2010)
Like-named read-outs stand apart in the source and are kept apart here.

What was measured:
[1] = test system: K. pneumoniae expressing the Class A ESBL CTX-M-15; experiment: microbe, parasite or virus in culture; type: cell-based; conditions: in the presence of fixed 8 μg/mL Ceftazidime
Source text: To determine the ability of test compounds to potentiate the inhibition of the growth of bacterial strains producing beta-lactamase enzymes, classic cell based screening assays were employed. Four bacteria strains producing beta-lactamase enzymes were used: K. pneumoniae expressing the Class A Extended Spectrum Beta-Lactamase (ESBL) CTX-M-15, E. coli expressing the Class A ESBL SHV-5, E. cloacae expressing the Class C P99+, and K. pneumoniae expressing the Class A carbapenemase KPC-2. In order to evaluate the ability of test compounds to inhibit beta-lactamase activity, Applicants used a modification of the broth microdilution assay. The assay was conducted in Cation Adjusted Mueller Hinton Broth (CAMHB, BD # 212322, BD Diagnostic Systems, Sparks, Md.). Bacteria strains were grown for 3-5 hours in CAMBH broth. All four strains were grown in presence of 50 μg/mL ampicillin to ensure resistance is maintained. In the meantime, test compounds were diluted in DMSO to a 0.1 mg/mL stock. The compounds were added to a microtiter plate and were diluted in 2-fold serial dilutions in CAMHB in a final concentration range of 8 μg/mL to 0.015 μg/ml. […] […] Each of these compound plates are made in quadruplicate, one for each bacteria strain. In addition to the titration of test compounds the MICs of a panel of cephalosporins is also tested to ensure the strains are behaving consistently from test to test. Once the test compound and cephalosporin are added the plates can be inoculated. Inocula are conducted according to CLSI broth microdilution method. After inoculation the plates are incubated for 16-20 hours at 37° C. then the Minimal Inhibitory Concentration (MIC) of the test compound is determined visually.

[2] = target: T1, Class C P99 AmpC (Enterobacter cloacae, UniProt P05364); type: biochemical; conditions: purified enzyme; nitrocefin 100 μM, PBS pH 7.0; read-out: P99 AmpC IC50 Range
T1 construct: made in house; host or cells: E. coli BL21(DE3)
Procedure: (§1) Isolation of β-lactamases. For all examples, purified beta-lactamase enzymes were used to measure a compounds' ability to inhibit the Class A ESBL CTXM-15, the Class C P99 AmpC and the Class A carbapenemase KPC-2. […] The enzyme preparations are described herein.
(§2) For the isolation and purification of SHV-5, p99 AmpC, KPC-2 and CTX-M15 β-lactamases, E. coli BL21(DE3) bacterial cells carrying expression plasmids (expressed as native untagged proteins) for the individual β-lactamases were grown in 1 L of Superbroth (Teknova Inc. Hollister, Calif.) supplemented with 100 μg/ml kanamycin and 1×5052 (0.5% glycerol, 0.05% glucose and 0.2% α-lactose) at 35° C. for 18-20 hours. Cells were harvested by centrifugation (4,000×g, 4° C., 20 min), and resuspended in 50 ml of 10 mM HEPES pH 7.5 ( 1/20 of the initial volume). The cells were lysed by sonication (5 pulses of 45 seconds) at 45 W on ice. The lysates were clarified by centrifugation at 10,000×g for 40 minutes at 4° C. Samples were diluted 5-fold in 50 mM sodium acetate pH 5.0, stored overnight at 4° C., after which they were centrifuged at 10,000×g for 30 minutes to clarify, and filtered through 0.45 μm filters. The samples were loaded onto a 5 ml Capto S sepharose cation exchange column (GE Healthcare) pre-equilibrated with 50 mM sodium acetate pH 5.0. The column was washed with 5 column volumes of 50 mM sodium acetate pH 5.0 to wash out unbound protein and a linear gradient of NaCl (0 to 500 mM) was used to elute the protein (over 16 CV) from the column. Fractions were assayed for β-lactamase activity using Centa (Calbiochem, Gibbstown, N.J.) as a reporter β-lactamase substrate for activity in the isolated fractions. Active fractions were pooled, concentrated and further purified by gel filtration chromatography on a Superdex 75 prep grade gel filtration column (GE Healthcare, Piscataway, N.J.) pre-equilibrated in 50 mM Hepes pH 7.5, 150 mM NaCl. Active fractions were pooled concentrated, quantitated by BCA protein determination (Thermo Scientific, Rockford, Ill.), and frozen at −80° C. in 20% glycerol until use.
(§3) β-lactamase Inhibition. To determine the level of inhibition of β-lactamaseenzymes, compounds were diluted in PBS at pH 7.0 to yield concentrations between 100 and 0.005 μM in microtiter plates. An equal volume of diluted enzyme stock was added, and the plates were incubated at 37° C. for 10 min. Nitrocefin solution was then dispensed as substrate into each well at a final concentration of 100 μM, and the plates were immediately read with the kinetic program at 486 nm for 10 min on the SPECTRAMAX® Plus^384 (high-throughput microplate spectrophotometer; Molecular Devices Corp., Sunnyvale, Calif.). Maximum rates of metabolism were then compared to those in control wells (without inhibitors), and percentages of enzyme inhibition were calculated for each concentration of inhibitor. The concentration of inhibitor needed to reduce the initial rate of hydrolysis of substrate by 50% (IC50) was calculated as the residual activity of β-lactamase at 486 nm using the SoftMax Pro 5.0 software (Molecular Devices Corp.).

[3] = target: T2, Class A ESBL SHV-5 (Klebsiella pneumoniae, UniProt P0A3M1); type: biochemical, E. coli; conditions: nitrocefin 100 μM, PBS pH 7.0, read-out: SHV-5 IC50 Range
T2 construct: made in house; host or cells: E. coli BL21(DE3) for purified enzyme; E. coli cells containing SHV-5 for extracts
Procedure: as §1
For the preparation of SHV-5 extracts, E. coli cells containing SHV-5 were cultured overnight with shaking at a volume of 20 mL. They were further diluted 10-fold and grown to mid-log phase (OD at 600 nm, 0.5-0.8) in Mueller-Hinton II (MH-II) broth at 37° C. The cells were pelleted at 5000 g, washed and resuspended in 2 mL PBS pH 7.0. The β-lactamase was extracted by four cycles of freezing and thawing followed by centrifugation. β-lactamase activity in the extract was measured with the chromogenic cephalosporin nitrocefin. The amount of protein in each β-lactamase preparation was determined by the bicinchoninic acid (BCA) assay.
as §2, §3

[4] = target: T3, Class A ESBL CTXM-15 (Escherichia coli, UniProt Q9EXV5); experiment: β-lactamase enzyme inhibition (nitrocefin hydrolysis), CTXM-15; type: biochemical; conditions: purified enzyme; nitrocefin 100 μM, PBS pH 7.0; read-out: CTXM-15 IC50 Range
T3 construct: made in house; host or cells: E. coli BL21(DE3)
Procedure: as §1, §2, §3

[5] = test system: K. pneumoniae expressing the Class A carbapenemase KPC-2; experiment: microbe, parasite or virus in culture; conditions: in the presence of fixed 8 μg/mL Ceftazidime
Source text: To determine the ability of test compounds to potentiate the inhibition of the growth of bacterial strains producing beta-lactamase enzymes, classic cell based screening assays were employed. Four bacteria strains producing beta-lactamase enzymes were used: K. pneumoniae expressing the Class A Extended Spectrum Beta-Lactamase (ESBL) CTX-M-15, E. coli expressing the Class A ESBL SHV-5, E. cloacae expressing the Class C P99+, and K. pneumoniae expressing the Class A carbapenemase KPC-2. In order to evaluate the ability of test compounds to inhibit beta-lactamase activity, Applicants used a modification of the broth microdilution assay. The assay was conducted in Cation Adjusted Mueller Hinton Broth (CAMHB, BD # 212322, BD Diagnostic Systems, Sparks, Md.). Bacteria strains were grown for 3-5 hours in CAMBH broth. All four strains were grown in presence of 50 μg/mL ampicillin to ensure resistance is maintained. In the meantime, test compounds were diluted in DMSO to a 0.1 mg/mL stock. The compounds were added to a microtiter plate and were diluted in 2-fold serial dilutions in CAMHB in a final concentration range of 8 μg/mL to 0.015 μg/ml. An overlay of CAMHB containing a cephalosporin was added to the compounds at a final static concentration of 8 μg/ml. […] Each of these compound plates are made in quadruplicate, one for each bacteria strain. In addition to the titration of test compounds the MICs of a panel of cephalosporins is also tested to ensure the strains are behaving consistently from test to test. Once the test compound and cephalosporin are added the plates can be inoculated. Inocula are conducted according to CLSI broth microdilution method. After inoculation the plates are incubated for 16-20 hours at 37° C. then the Minimal Inhibitory Concentration (MIC) of the test compound is determined visually.

[6] = target: T4, Class A carbapenemase KPC-2 (Klebsiella pneumoniae, UniProt Q9F663); experiment: β-lactamase enzyme inhibition (nitrocefin hydrolysis), KPC-2; type: biochemical; conditions: purified enzyme; nitrocefin 100 μM, PBS pH 7.0; read-out: KPC-2 IC50 Range
T4 construct: made in house; host or cells: E. coli BL21(DE3)
Procedure: as §1, §2, §3

[7] = purified beta-lactamase enzyme (Examples 1 and 31-64)
[8] = cellular extracts of E. coli containing SHV-5 (Examples 2-30)

T1 sequence (P05364 21-381): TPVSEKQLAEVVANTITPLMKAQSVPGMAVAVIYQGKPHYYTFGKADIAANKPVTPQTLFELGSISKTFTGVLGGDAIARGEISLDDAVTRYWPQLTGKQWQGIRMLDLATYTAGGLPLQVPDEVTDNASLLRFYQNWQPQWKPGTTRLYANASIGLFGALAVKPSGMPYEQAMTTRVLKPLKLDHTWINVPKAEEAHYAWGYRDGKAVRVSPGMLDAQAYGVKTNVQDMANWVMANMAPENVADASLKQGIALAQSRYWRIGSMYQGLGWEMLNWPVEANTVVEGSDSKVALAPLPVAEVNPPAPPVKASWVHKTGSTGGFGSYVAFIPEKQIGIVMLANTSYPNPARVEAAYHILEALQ
T3 sequence (Q9EXV5 entry or part of it): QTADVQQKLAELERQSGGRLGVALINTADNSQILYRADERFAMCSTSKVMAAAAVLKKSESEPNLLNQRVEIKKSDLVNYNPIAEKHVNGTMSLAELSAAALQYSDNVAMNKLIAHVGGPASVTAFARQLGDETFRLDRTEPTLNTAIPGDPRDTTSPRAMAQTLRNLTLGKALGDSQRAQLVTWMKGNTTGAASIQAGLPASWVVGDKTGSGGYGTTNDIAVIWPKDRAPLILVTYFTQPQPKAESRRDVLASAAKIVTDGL
T2 sequence (P0A3M1 22-286): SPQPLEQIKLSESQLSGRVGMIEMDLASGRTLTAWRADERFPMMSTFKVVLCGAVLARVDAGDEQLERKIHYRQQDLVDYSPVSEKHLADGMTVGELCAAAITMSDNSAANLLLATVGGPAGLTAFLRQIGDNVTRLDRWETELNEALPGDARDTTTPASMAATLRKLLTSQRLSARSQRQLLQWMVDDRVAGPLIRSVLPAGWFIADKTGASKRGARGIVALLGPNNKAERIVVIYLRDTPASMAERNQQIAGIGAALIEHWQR
T4 sequence (Q9F663 25-293 limits assumed): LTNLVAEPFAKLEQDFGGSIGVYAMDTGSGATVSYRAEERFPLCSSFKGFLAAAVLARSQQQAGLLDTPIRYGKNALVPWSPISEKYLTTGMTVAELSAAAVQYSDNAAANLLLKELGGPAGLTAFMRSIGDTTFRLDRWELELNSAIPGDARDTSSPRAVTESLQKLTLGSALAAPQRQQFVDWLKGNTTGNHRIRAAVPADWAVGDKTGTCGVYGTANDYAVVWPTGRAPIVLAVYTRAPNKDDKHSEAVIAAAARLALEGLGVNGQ

Compound	MIC of example compound, K. pneumoniae CTX-M-15 + 8 μg/mL CAZ [1]	IC50 [2] [nM]	IC50 [3, 7] [nM]	IC50 [4] [nM]	MIC of example compound, K. pneumoniae KPC-2 + 8 μg/mL CAZ [5]	IC50 [6] [nM]	IC50 [3, 8] [nM]
O=C(N[C@@H](Cc1cccc(C(=O)O)c1O)B(O)O)c1cncnc1 [Example 60, (1R)-1-(Pyrimidine-5-carbonyl-amino)-2-(2-hydroxyl-3-carboxyphenyl)ethyl-1-boronic acid]	C (C represents an MIC of <1 μg/mL)	< 10	10 to 100	10 to 100	C (C represents an MIC of <1 μg/mL)	< 10	–
O=C(N[C@@H](Cc1cccc(C(=O)O)c1O)B(O)O)c1cccc(O)c1 [Example 28, (1R)-1-(3-hydroxybenzoylamino)-2-(2-hydroxy-3-carboxyphenyl)ethyl-1-boronic acid]	C (C represents an MIC of <1 μg/mL)	< 10	–	< 10	C (C represents an MIC of <1 μg/mL)	10 to 100	10 to 100
O=C(Cc1cc(O)ccc1O)N[C@@H](Cc1cccc(C(=O)O)c1O)B(O)O [Example 18, (1R)-1-(2-(2,5-dihydroxyphenyl)acetylamino)-2-(2-hydroxy-3-carboxyphenyl)ethyl-1-boronic acid]	C (C represents an MIC of <1 μg/mL)	< 10	–	< 10	–	< 10	< 10
O=C(N[C@@H](Cc1cccc(C(=O)O)c1O)B(O)O)c1cccnc1 [Example 51, (1R)-1-(Nicotinoylamino)-2-(2-hydroxy-3-carboxyphenyl)ethyl-1-boronic acid]	C (C represents an MIC of <1 μg/mL)	< 10	10 to 100	< 10	C (C represents an MIC of <1 μg/mL)	< 10	–
O=C(CNC(=O)c1ccccc1)N[C@@H](Cc1cccc(C(=O)O)c1O)B(O)O [Example 50, (1R)-1-(Hippuric amido)-2-(2-hydroxy-3-carboxyphenyl)ethyl-1-boronic acid]	C (C represents an MIC of <1 μg/mL)	< 10	< 10	< 10	C (C represents an MIC of <1 μg/mL)	< 10	–
CC(=O)N[C@@H](Cc1cccc(C(=O)O)c1O)B(O)O [Example 6, (1R)-1-(2-acetylamino)-2-(2-hydroxy-3-carboxyphenyl)ethyl-1-boronic acid]	C (C represents an MIC of <1 μg/mL)	10 to 100	–	< 10	C (C represents an MIC of <1 μg/mL)	–	100 to 1000
N[C@H](C(=O)N[C@@H](Cc1cccc(C(=O)O)c1O)B(O)O)c1ccccc1.O=CO [Example 12, (1R,2′S)-1-(2-amino-2-phenylacetylamino)-2-(2-hydroxy-3-carboxyphenyl)ethyl-1-boronic acid formate salt]	C (C represents an MIC of <1 μg/mL)	100 to 1000	–	10 to 100	C (C represents an MIC of <1 μg/mL)	–	100 to 1000
NC(=O)COc1cccc(CC(=O)N[C@@H](Cc2cccc(C(=O)O)c2O)B(O)O)c1 [Example 8, (1R)-1-[(3-carbamoylmethoxy)-phenyl]-acetylamino-(3-carboxy-2-hydroxy), benzyl-methylboronic acid]	C (C represents an MIC of <1 μg/mL)	< 10	–	< 10	C (C represents an MIC of <1 μg/mL)	–	< 10
